{
  "source": "patent US8362075B2",
  "about": "“Cyclohexyl sulphones for treatment of cancer” (Merck Sharp & Dohme Corp., priority 2005, dated 2013)",
  "system": "Cells expressing Notch (ALL-SIL, DND-41, HPB-ALL or TALL-1)",
  "test": "Assay for Cell Cycle Arrest (propidium iodide, FACS)",
  "format": "cell-based",
  "conditions": "concentrations up to 10 μM, incubation typically 4-8 days",
  "protocol": "Assay for Cell Cycle Arrest Cells expressing Notch (ALL-SIL, DND-41, HPB-ALL or TALL-1) (Weng et al, Science, 306 (2004), 269-71) were incubated in the presence or absence of a compound of the instant invention (e.g. the compound of Example 39 below) at concentrations up to 10 μM. At the end of the incubation (typically 4-8 days), the cells were collected, fixed in 70% ethanol on ice for >2 hours, washed, then labelled for 15 min at 37° C. with propidium iodide (0.2 mg/ml) (PI) in the presence of 0.1% Triton X100 and 0.2 mg/ml RNase and subjected to FACS analysis. […] Assay for Apoptosis",
  "data": [
    {"smiles": "O=C(O)CC[C@H]1CC[C@@](c2cc(F)ccc2F)(S(=O)(=O)c2ccc(Cl)cc2)CC1", "note": "[Example 39, cis-4-[(4-chlorophenyl)sulfonyl]-4-(2,5-difluorophenyl)cyclohexanepropanoic acid]", "values": [
      {"measurement": "cell cycle populations versus untreated controls", "value": "severe loss of G2- and S-phase populations, consistent with G0/G1 arrest"}
    ]}
  ]
}
